Assay results reported in US7348017B2, “Dithiazole compounds, matrix metalloprotease inhibitors and external preparations for the skin” (Shiseido Co., Ltd., priority 2001, dated 2008).

Target: T1, MMP-9 (crude enzyme solution derived from a mouse skin) (Mus musculus, UniProt P41245)
T1 construct: crude enzyme solution derived from a mouse skin; from tissue; host or cells: mouse skin
Test: Gelatinase group MMPs inhibition test (gelatin zymography)
Format: biochemical
Parameters: key: ⊚: The band disappeared.; ◯: The band was slightly confirmed.; Δ: The band became narrower than control.; ×: Unchanged
Details: sample solution 100 μM; gel incubated overnight; size of MMP-9 band compared with control solution
Protocol: A test material was dissolved in dimethyl sulfoxide (DMSO) to the concentration of 10 mM, to prepare a stock solution. The stock solution was diluted with a measuring buffer (0.05M tris at pH 7.5 containing 0.2M NaCl and 5 mM CaCl2) to adjust the concentration to 100 μM, which was used as a sample solution. As a control solution, a solution containing no test material was similarly prepared.
(b) Gelatinase Group MMPs Inhibition Test
As a gelatinase group enzyme, MMP-9 (crude enzyme solution derived from a mouse skin) was used. The test was performed according to a gelatin zymography method (“Bio-antioxidant provitamin C”, Nobuhiko Miwa ed., p.76, 1999, Fragrance Journal, Tokyo).
That is, a gel containing gelatin in which a predetermined amount of the crude enzyme solution had been subjected to electrophoresis in advance, was incubated overnight with a sample solution or a control solution. After the gel was stained, the appearing band corresponding to MMP-9 was evaluated by a decrease when its size compared with that of a band of control solution. Evaluation criteria was as follows: • ⊚: The band disappeared. • ◯: The band was slightly confirmed. • Δ: The band became narrower than control. • ×: Unchanged.

T1 sequence (P41245 108-730): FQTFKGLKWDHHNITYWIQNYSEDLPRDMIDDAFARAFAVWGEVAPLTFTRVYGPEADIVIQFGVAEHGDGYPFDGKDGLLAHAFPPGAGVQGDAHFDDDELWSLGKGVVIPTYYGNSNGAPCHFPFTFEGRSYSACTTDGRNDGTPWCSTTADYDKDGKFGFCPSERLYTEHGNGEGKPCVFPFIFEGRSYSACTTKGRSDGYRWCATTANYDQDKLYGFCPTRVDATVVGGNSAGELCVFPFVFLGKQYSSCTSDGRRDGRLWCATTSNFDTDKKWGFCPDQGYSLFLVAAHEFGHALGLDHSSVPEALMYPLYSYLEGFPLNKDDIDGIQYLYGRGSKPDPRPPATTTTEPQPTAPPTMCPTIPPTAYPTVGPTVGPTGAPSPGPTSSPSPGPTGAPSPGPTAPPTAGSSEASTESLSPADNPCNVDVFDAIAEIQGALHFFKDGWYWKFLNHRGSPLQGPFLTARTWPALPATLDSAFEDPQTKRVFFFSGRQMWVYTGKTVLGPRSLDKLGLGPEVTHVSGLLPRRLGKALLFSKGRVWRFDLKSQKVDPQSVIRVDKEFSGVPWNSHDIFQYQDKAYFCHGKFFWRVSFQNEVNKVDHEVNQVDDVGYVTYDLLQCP

Row | SMILES | MMPs Inhibition
1 | O=C(Cc1ccccc1OCc1ccc(F)cc1)Nc1nc(=S)ss1 [Compound 7, 2-{2-[(4-Fluorobenzyl)oxy]phenyl}-N-(3-thioxo-3H-1,2,4-dithiazol-5-yl)acetoamide] | ◯
2 | O=C(Cc1ccc(OCc2ccc(F)cc2)cc1)Nc1nc(=S)ss1 [Compound 5, 2-{4-[(4-Fluorobenzyl)oxy]phenyl}-N-(3-thioxo-3H-1,2,4-dithiazol-5-yl)acetoamide] | ◯
3 | CC(C)=CCC/C(C)=C/COc1ccc(CC(=O)Nc2nc(=S)ss2)cc1 [Compound 2, 2-{4-[(3,7-Dimethyl-2,6-octadienyl)oxy]phenyl}-N-(3-thioxo-3H-1,2,4-dithiazol-5-yl)acetoamide] | ◯
4 | O=C(Cc1cccc(OCc2ccc(F)cc2)c1)Nc1nc(=S)ss1 [Compound 8, 2-{3-[(4-Fluorobenzyl)oxy]phenyl}-N-(3-thioxo-3H-1,2,4-dithiazol-5-yl)acetoamide] | ◯
5 | CC(C)C(C(=O)Nc1nc(=S)ss1)c1ccc(OCc2ccc(F)cc2)cc1 (stereo not shown) [Compound 12, 2-{4-[(4-Fluorobenzyl)oxy]phenyl}-3-methyl-N-(3-thioxo-3H-1,2,4-dithiazol-5-yl)butanamide] | ⊚
6 | O=C(Cc1cc(OCc2ccc(F)cc2)cc(OCc2ccc(F)cc2)c1)Nc1nc(=S)ss1 [Compound 9, 2-{3,5-Bis[(4-fluorobenzyl)oxy]phenyl}-N-(3-thioxo-3H-1,2,4-dithiazol-5-yl)acetoamide] | ◯
7 | COc1ccc(S(=O)(=O)N(CC(=O)Nc2nc(=S)ss2)Cc2ccccc2)cc1 [Compound 1, 2-{Benzyl[(4-methoxyphenyl)sulfonyl]amino}-N-(3-thioxo-3H-1,2,4-dithiazol-5-yl) acetoamide] | ◯
